Reference: patent US20220062296A1, “COMBINATIONS OF GABAA ALPHA 5 AGONISTS AND SV2A INHIBITORS AND METHODS OF USING IN THE TREATMENT OF COGNITIVE IMPAIRMENT” (AGENEBIO, INC., priority 2020, published 2022)

System: aged-impaired (AI) Long-Evans rats
Assay: Morris Water Maze (MWM) retention trial, levetiracetam
Format: in vivo, rat
Conditions: for time spent in the target quadrant (percentage of total swimming time): retention trial 24 hours after training
Description: Six aged-impaired (AI) Long-Evans rats (as characterized above) were tested for their memory of new spatial information in the Morris water maze (MWM), under different drug/control treatment conditions (vehicle control and two different dosage levels of levetiracetam). A retention trial was performed after the training trials, as described below. The MWM apparatus consists of a large, circular pool (diameter 1.53 m; height, 0.58 m) filled with water (27° C.) that is made opaque through the addition of non-toxic pigment or some other substance. In the typical “hidden platform” version of the test, rats are trained to find a camouflaged white escape platform (height, 34.5 cm) that is positioned in the center of one quadrant of the maze about 1.0 cm below the water surface. This platform can be retracted to the bottom of the tank or raised to its normal position from outside the maze during behavioral testing. The location of the platform remains constant from trial to trial. Because there are no local cues that mark the position of the platform, the rat's ability to locate it efficiently from any starting position at the perimeter of the pool depends on using information surrounding the maze. The maze is surrounded by black curtains to which white patterns are affixed to provide a configuration of spatial cues. A second platform (height 37.5 cm), with its surface painted black is elevated 2 cm above the water surface during cue training to control for factors unrelated to cognition. The behavior of a rat in the pool is recorded by a camera that is suspended 2.5 m above the center of the pool. The camera is connected to a video tracking system (HVS Image Advanced Tracker VP200) and a PC computer running HVS software developed by Richard Baker of HVS Image, Hampton, UK. […] On each training trial, the rat was released in the maze from one of four equally spaced starting positions around the perimeter of the pool. […] In the retention trial, the time the AI rats spent swimming in the target quadrant is measured and further plotted as a percentage of total swimming time. […]

CC[C@@H](C(N)=O)N1CCCC1=O [levetiracetam, (2S)-2-(2-oxopyrrolidin-1-yl)butanamide]
time spent in the target quadrant (percentage of total swimming time) (levetiracetam 5 mg/kg/day i.p., vs vehicle): did not significantly improve | time spent in the target annulus (levetiracetam 10 mg/kg/day i.p., retention trial): effectiveness of the 10 mg/kg/day levetiracetam treatment was also seen | time spent in the target quadrant (percentage of total swimming time) (levetiracetam 10 mg/kg/day i.p.): approximately 35%
